Measurements as given in ChEMBL document CHEMBL3301555, “MMV Malaria Box screening in pLDH viability assay against Plasmodium falciparum gametocytes”.

test system: Plasmodium falciparum; test: MMV: Measure of pLDH activity as indication of parasite viability. Gametocytogenesis of 3D7 Plasmodium falciparum strain was induced in vitro and asexual parasites were depleted with N-acetylglucosamine. Gametocytes were treated with dihydroartemisinin, epoxomicin, methylene blue, primaquine, puromycin or chloroquine in 96-well plates and the pLDH activity was evaluated using a modified Makler protocol. Mosquito infectivity was measured by the standard membrane feeding assay.; format: functional; parameters: concentration or dose not given beside the values

| SMILES | Growth Inhibition [%] |
| --- | --- |
| O=C(c1ccccc1F)N(Cc1ccc(Cl)cc1)c1ccccn1 | 9.2554 |
| CC(C)(C)CC(C)(C)NCC(O)COc1ccc2c(c1)CCC2.Cl (stereo not given) | 14.2274 |
| c1ccc(/C2=N/c3ccccc3/N=C(/c3ccccc3)c3ccccc32)cc1 | 14.1312 |
| CCOc1cc2c(cc1OCC)C(c1cc(Cl)c(O)c(OCC)c1)NCC2 (stereo not given) | 16.0386 |
| OC(CNC1CCCC1)Cn1c2ccccc2c2ccccc21 (stereo not given) | 39.5038 |
| CC(=O)c1sc(NC(=O)Nc2ccc(C)cc2C)nc1C | 12.9136 |
| COc1ccc(C2Sc3ccccc3N=C3C2=C(O)c2ccccc23)cc1 (stereo not given) | -5.7444 |
| Nc1ccc(-c2nc3cc(Cc4ccc5[nH]c(-c6ccc(N)cc6)nc5c4)ccc3[nH]2)cc1 | 9.5548 |
| CCOC(=O)c1cnc2ccc(OC)cc2c1Nc1ccc(N2CCN(C)CC2)cc1 | 5.5888 |
| COc1ccccc1CNC(=O)CCn1c(=O)[nH]c2ccsc2c1=O | -5.0228 |
| COc1ccc(-c2nonc2NC(=O)c2cccc(Cl)c2)cc1OC | 6.9258 |
| CCN(CC)c1ccc(NC(=O)c2cccs2)cc1 | 3.9542 |
| Cc1cc(Nc2ccc(OCc3ccccc3)cc2)nc2cc(O)ccc12 | 36.4644 |
| COc1ccc(NC(=O)C2c3ccccc3C(=O)N(CC(C)C)C2c2cccs2)cc1 (stereo not given) | 28.379 |
| CCOc1cccc(C(=O)Nc2ccc(-c3nc4ccccc4[nH]3)cc2)c1 | 7.5178 |
| OC1CCCCC1C1(NC(=S)Nc2ccccc2)CCCCC1 (stereo not given) | -6.2185 |
| O=C(NCc1ccco1)C1CCN(S(=O)(=O)c2ccc(Cl)cc2)CC1 | 3.8942 |
| COc1ccc(CNC2CCN(c3ccc(NC(=O)c4cccc(Cl)c4)cc3)CC2)cc1OC | 12.3618 |
| O=C(NC1CCN(Cc2ccccc2)CC1)c1cc(-c2cccnc2)nc2ccc(Cl)cc12 | 12.1742 |
| CCOc1cc(Cl)c(C(C)NC(=O)c2cccc(OC)c2)cc1OCC (stereo not given) | 18.9364 |
| c1ccc(-c2ccc(-c3nc4ccccc4[nH]3)cc2)cc1 | 7.2118 |
| CCN(CC)CCCNc1nc(-c2ccc(Cl)cc2)nc2ccccc12 | 7.9964 |
| CNCCCNc1ccnc2cc(Cl)ccc12 | -4.352 |

| SMILES | Growth Inhibition [%] |
| --- | --- |
| COc1ccc(NC(=O)C2c3ccccc3C(=O)N(CC(C)C)C2c2cccs2)cc1Cl (stereo not given) | 14.3436 |
| Cc1sc(NC(=O)c2ccco2)c(C(c2cccnc2)N2CCC(Cc3ccccc3)CC2)c1C (stereo not given) | 4.6056 |
| O=C(NCC(c1ccsc1)N1CCCCCC1)c1ccc(C(F)(F)F)cc1 (stereo not given) | -3.1098 |
| O=C(Nc1cccc(-c2nc3ccccc3[nH]2)c1)c1cccc(NC(=O)c2ccco2)c1 | 6.1984 |
| Cc1ccc2c(C)nc(Nc3nc(C)cc(-c4ccccc4)n3)nc2c1 | -3.9148 |
| CCCCCCOC(=O)C1=C(C)NC(=O)NC1c1ccccc1F (stereo not given) | 6.2916 |
| CCc1c(C)c(=N)c2ccccc2n1C.I | -4.4994 |
| Cc1cc(Nc2ccc3ccccc3c2)n2ncnc2n1 | -5.4308 |
| COc1ccc(C2c3ccc4ccccc4c3Oc3ncn(CCCn4ccnc4)c(=N)c32)cc1OC (stereo not given) | 22.0606 |
| CC(C)CNC(=O)c1c(N)n(CCc2ccccc2F)c2nc3ccccc3nc12 | -1.2922 |
| COc1ccc(CCn2c(=N)c(C(=O)NCc3cccnc3)cc3c(=O)n4cccc(C)c4nc32)cc1 | 4.0678 |
| Cc1ccc(CN2CCC(C(=O)Nc3ccc(-c4cc5ccccc5[nH]4)cc3)CC2)o1 | 25.7326 |
| COc1ccc(C=C2SC(=N)N(c3ccccc3OC)C2=O)cc1 | 26.57 |
| CCN(CC)CCNc1ccnc2cc3ccccc3cc12.O=P(O)(O)O | 12.0652 |
| Oc1c2c(nc3cc(-c4ccccc4)nn13)CCCC2 | 5.0802 |
| Cc1ccc(Nc2nc(N)c3ccccc3n2)cc1Cl | 23.2734 |
| O=C(Nc1ccc(Cl)cc1)N1CCN(c2ccc3nncn3n2)CC1 | -0.5422 |
| CCn1nc(-c2ccc(C(=O)OC)cc2)nc2c(=O)n(C)c(=O)nc1-2 | 19.8788 |
| Cc1ccc(-c2cc3c(nn2)-c2ccccc2C3=O)cc1 | 32.1362 |
| CCCN(CCC)CCCNC(=O)c1cc2c(-c3ccc(OC)c(OC)c3)nn(C)c2s1 | 9.751 |
| CCOC(=O)c1c(C)n(-c2ccc(Cl)cc2)c2ccc(OC(=O)C=Cc3ccccc3)cc12 | -3.2706 |
| CCCCCCc1cc(O)c2c3c(c(=O)oc2c1)CCC(C)C3 (stereo not given) | 26.585 |
| O=C(CCl)NCCOc1ccc(Cl)cc1Cl | 8.2288 |

| SMILES | Growth Inhibition [%] |
| --- | --- |
| Cc1ccc2nc(C)cc(Nc3cccc(C(F)(F)F)c3)c2c1.Cl | -5.193 |
| O=C(CSc1ccc2nnc(-c3cccc(F)c3)n2n1)Nc1ccc2c(c1)OCO2 | 8.1908 |
| CCOC(=O)c1cnc2ccc(Cl)cc2c1NCCCN(C)C | 5.776 |
| CCOC(=O)c1cnc2ccc(CC)cc2c1O | 41.8585 |
| Oc1ccc2ccccc2c1CNc1nc2ccccc2[nH]1 | 8.4186 |
| COc1ccc2nc(C)cc(Nc3cccc(O)c3)c2c1.Cl | 10.892 |
| O=C(Nc1cccc(C(F)(F)F)c1)c1cc(Cl)ccc1O | 14.365 |
| Cc1cc(Nc2ccc(Cl)cc2)n2nc(C(F)(F)F)nc2n1 | 7.7522 |
| OC1=C2C(=Nc3ccccc3SC2c2ccc(Br)cc2)c2ccccc21 (stereo not given) | 30.3526 |
| O=C1c2ccccc2C2=Nc3ccccc3SC(c3cccc(F)c3)C12 (stereo not given) | 29.827 |
| Cn1c(C(=O)c2cccc3ccccc23)nc2ccccc21 | -3.612 |
| CC(C)(C)c1ccc(O)c(CNC2CCCCC2)c1 | 30.335 |
| CCOc1ccc(/C=C/c2nc(=O)c3ccccc3o2)cc1 | 7.7706 |
| CCOc1ccc2nc(C)cc(Nc3ccc(N(C)C)cc3)c2c1.Cl | 13.9954 |
| COc1ccccc1N1CCN(C(CNS(=O)(=O)c2ccc(Cl)cc2)c2cccnc2)CC1 (stereo not given) | 14.3398 |
| COc1ccc2nc(N)nc(C)c2c1 | 7.6614 |
| CCOC(=O)C1=C(C)N=c2sc(=Cc3ccccc3O)c(=O)n2C1c1ccc(OC)c2ccccc12 (stereo not given) | 6.5248 |
| COc1ccc2nc(C)cc(Nc3ccc(Cl)cc3)c2c1 | 15.7236 |
| CCOc1ccc(-c2nonc2NC(=O)c2cccc(C)c2)cc1OCC | 30.014 |
| COc1cc(CNCCc2ccc(Cl)cc2)cc(OC)c1O | 17.1102 |
| COc1cccc(Cn2c(Oc3ccccc3)nc3c2c(=O)n(C)c(=O)n3C)c1 | 5.4442 |
| CCN1CCN(Cc2ccc(NC(=O)c3cc4ccc5cccnc5c4[nH]3)cc2)CC1 | 4.9364 |
| c1ccc2cc3c(Nc4ccc(N5CCOCC5)cc4)ccnc3cc2c1 | 12.7974 |

| SMILES | Growth Inhibition [%] |
| --- | --- |
| Cc1cccc(Nc2nc(N)c3ccccc3n2)c1.Cl | -0.3732 |
| Cc1cc(C=C2SC(=Nc3ccccc3)N(C3CCCC3)C2=O)c(C)n1-c1ccc(Cl)cc1 | -0.992 |
| CCOC(=O)c1c[nH]c2c(CC)cccc2c1=O | 3.164 |
| Cc1ccccc1OCCSc1nc2ccc(NC(=O)c3cccs3)cc2s1 | 6.631 |
| C[n+]1c2ccccc2nc2ccc(NCCO)cc21 | 16.8202 |
| COc1nc(Nc2ccc(C(C)C)cc2)nc(OC)n1 | 1.041 |
| Cc1ccnc(NC(c2cccc(OCc3ccccc3)c2)c2ccc3cccnc3c2O)c1 (stereo not given) | -1.2034 |
| O=C(O)C1Cc2c([nH]c3ccccc23)C(c2ccc(Cl)cc2Cl)N1 (stereo not given) | 8.0448 |
| CC(C)c1ccc(CNCC(O)c2ccccc2)cc1.Cl (stereo not given) | 37.0308 |
| CCN(CC)CCNc1ncnc2c1[nH]c1ccc(Cl)cc12 | 10.0038 |
| CCCCC(O)(c1ccc(Cl)cc1)C(CN1CCOCC1)c1ccc(Cl)cc1.Cl (stereo not given) | 3.244 |
| Oc1ccc(Br)cc1CN1CCN(Cc2ccc(Cl)cc2)CC1 | 44.4912 |
| CC(O)(c1ccc(Cl)cc1)C(CN1CCCCC1)c1ccccc1.Cl (stereo not given) | 18.9754 |
| O=C(NCc1ccco1)C1CCN(S(=O)(=O)c2ccc(Br)cc2)CC1 | 6.982 |
| CCN(CC)CCNc1ncnc2c1[nH]c1ccc(Br)cc12 | 8.817 |
| Cc1cc(NC(=O)c2ccc(-c3ccccc3)cc2)no1 | 4.97 |
| COc1ccc(C2C(C(=O)Nc3cccc(OC)c3)c3ccccc3C(=O)N2C2CCCCC2)cc1 (stereo not given) | -2.347 |
| Nc1ccc(-c2nc3cc(Oc4ccc(Oc5ccc6[nH]c(-c7ccc(N)cc7)nc6c5)cc4)ccc3[nH]2)cc1 | 21.5644 |
| Cc1ccc(CSCc2ccc(C(=O)NC3CC3)o2)cc1 | 9.7118 |
| O=C(CCc1ccccc1)c1ccccc1OCC(O)CN1CCCCC1 (stereo not given) | 24.7266 |
| CN1CCN(c2c3c(c(C#N)c4nc5ccccc5n24)CCC3)CC1 | 7.7684 |
